The IC50 is the point on the concentration scale where inhibition reaches its midpoint. Usually EC50 stands for the midpoint of the concentration-response curve. A high value points to lower potency in that assay.

Each structure is given as a SMILES string.

For 15 molecules, IC50 and EC50 results are on record in ChEMBL document CHEMBL1142838, “Design and synthesis of phthalimide-type histone deacetylase inhibitors” (Bioorg Med Chem Lett, 2005).

The first assay deals with Histone deacetylase 4 (Homo sapiens, UniProt P56524).
Chain of Histone deacetylase 4 (P56524 whole entry): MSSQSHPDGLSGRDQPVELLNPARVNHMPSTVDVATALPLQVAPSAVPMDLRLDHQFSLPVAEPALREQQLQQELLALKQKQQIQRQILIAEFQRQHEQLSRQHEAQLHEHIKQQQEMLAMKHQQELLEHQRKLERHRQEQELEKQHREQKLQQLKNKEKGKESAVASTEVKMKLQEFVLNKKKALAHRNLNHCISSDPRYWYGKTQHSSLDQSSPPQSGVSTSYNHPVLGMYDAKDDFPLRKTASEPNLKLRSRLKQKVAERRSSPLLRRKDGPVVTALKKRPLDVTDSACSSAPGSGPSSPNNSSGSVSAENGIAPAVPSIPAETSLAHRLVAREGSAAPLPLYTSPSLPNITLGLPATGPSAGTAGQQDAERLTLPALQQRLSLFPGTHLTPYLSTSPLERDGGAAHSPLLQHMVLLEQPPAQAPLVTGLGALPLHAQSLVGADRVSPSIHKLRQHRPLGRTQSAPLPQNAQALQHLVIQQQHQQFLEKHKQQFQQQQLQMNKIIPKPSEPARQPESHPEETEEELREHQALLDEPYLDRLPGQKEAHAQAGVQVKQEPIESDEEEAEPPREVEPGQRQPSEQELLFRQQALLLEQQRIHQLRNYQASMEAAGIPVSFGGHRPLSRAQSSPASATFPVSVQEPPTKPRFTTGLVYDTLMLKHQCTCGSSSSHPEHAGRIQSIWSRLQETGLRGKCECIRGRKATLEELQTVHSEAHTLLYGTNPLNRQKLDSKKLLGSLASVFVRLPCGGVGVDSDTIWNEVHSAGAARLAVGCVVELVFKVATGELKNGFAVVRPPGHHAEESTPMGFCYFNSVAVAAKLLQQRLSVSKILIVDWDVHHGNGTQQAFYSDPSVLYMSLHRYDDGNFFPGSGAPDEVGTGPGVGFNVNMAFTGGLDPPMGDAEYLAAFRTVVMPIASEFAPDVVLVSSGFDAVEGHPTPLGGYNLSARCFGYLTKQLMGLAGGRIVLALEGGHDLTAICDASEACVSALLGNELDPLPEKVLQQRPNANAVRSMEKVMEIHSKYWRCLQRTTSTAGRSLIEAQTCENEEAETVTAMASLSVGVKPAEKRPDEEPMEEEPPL
`O=C(/C=C/c1ccc2c(c1)C(=O)N(Cc1ccccc1)C2=O)NO`: the IC50 amounted to 358 nM. This lies in the sub-micromolar range.

The target in another assay is Histone deacetylase 1 (Homo sapiens, UniProt Q13547).
Chain of Histone deacetylase 1 (Q13547 whole entry): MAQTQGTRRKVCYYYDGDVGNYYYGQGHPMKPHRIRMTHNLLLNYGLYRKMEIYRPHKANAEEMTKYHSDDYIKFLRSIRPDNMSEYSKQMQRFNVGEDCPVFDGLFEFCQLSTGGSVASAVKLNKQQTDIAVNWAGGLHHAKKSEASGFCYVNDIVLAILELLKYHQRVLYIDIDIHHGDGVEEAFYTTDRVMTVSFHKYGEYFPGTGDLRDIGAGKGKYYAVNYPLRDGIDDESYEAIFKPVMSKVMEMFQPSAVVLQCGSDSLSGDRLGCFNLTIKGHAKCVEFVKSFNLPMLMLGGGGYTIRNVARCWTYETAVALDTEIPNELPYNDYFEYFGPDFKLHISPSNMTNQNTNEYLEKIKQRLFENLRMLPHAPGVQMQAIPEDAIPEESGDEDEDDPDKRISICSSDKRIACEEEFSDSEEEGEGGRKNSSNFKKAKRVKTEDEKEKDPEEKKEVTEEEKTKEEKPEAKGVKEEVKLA
With `O=C(/C=C/c1ccc2c(c1)C(=O)N(Cc1ccccc1)C2=O)NO`, the IC50 was determined as 572 nM.

Another assay deals with Histone deacetylase. The assay is described as follows: Effective concentration for inhibition of histone deacetylase. In kind it is protein assay, Homo sapiens.
For the molecule `C[C@H](c1ccccc1)N1C(=O)c2ccc(/C=C/C(=O)NO)cc2C1=O`, the EC50 turned out to be 291 nM.
Still for that read-out and setting: the result for `O=C(/C=C/c1ccc2c(c1)C(=O)N([C@@H](COC(=O)c1ccccc1)c1ccccc1)C2=O)NO` reads 3790 nM; that for `O=C(CCc1ccc2c(c1)C(=O)N(Cc1ccccc1)C2=O)NO`, 407 nM.
Same read-out and setting: the result for `O=C(NO)c1ccc2c(c1)C(=O)N(CCc1ccccc1)C2=O` reads 6630 nM.
Still for that read-out and setting: the value for `O=C(/C=C/c1ccc2c(c1)C(=O)N([C@H](COC(=O)c1ccccc1)c1ccccc1)C2=O)NO` was 763 nM.
Molecule `O=C(/C=C/c1ccc2c(c1)C(=O)N(Cc1ccccc1)C2=O)NO` had an EC50 of 148 nM.
`Cc1ccc(CN2C(=O)c3ccc(/C=C/C(=O)NO)cc3C2=O)cc1` had an EC50 of 474 nM.
Same read-out and setting: the value for `O=C(NO)c1ccc2c(c1)C(=O)N(c1ccccc1)C2=O` was 125000 nM; that for `O=C(/C=C/c1ccc2c(c1)C(=O)N(CCc1ccccc1)C2=O)NO` was 177 nM; that for `O=C(/C=C/c1ccc2c(c1)C(=O)N(c1ccccc1)C2=O)NO` was 2080 nM.
The same measure, in the same setting: the value for `O=C(/C=C/c1ccc2c(c1)C(=O)N(CC(c1ccccc1)c1ccccc1)C2=O)NO` was 7890 nM; that for `C[C@@H](c1ccccc1)N1C(=O)c2ccc(/C=C/C(=O)NO)cc2C1=O` was 250 nM.
The same measure, in the same setting: the value for `O=C(/C=C/c1ccc2c(c1)C(=O)N(C(c1ccccc1)c1ccccc1)C2=O)NO` was 2090 nM.
In the case of `COc1ccc(CN2C(=O)c3ccc(/C=C/C(=O)NO)cc3C2=O)cc1`, the EC50 is on record as 186 nM.
`O=C(NO)c1ccc2c(c1)C(=O)N(Cc1ccccc1)C2=O` displayed an EC50 of 4160 nM.

A further assay has as its target T1, Protein deacetylase HDAC6 (Homo sapiens, UniProt Q9UBN7).
T1 sequence (Q9UBN7 whole entry): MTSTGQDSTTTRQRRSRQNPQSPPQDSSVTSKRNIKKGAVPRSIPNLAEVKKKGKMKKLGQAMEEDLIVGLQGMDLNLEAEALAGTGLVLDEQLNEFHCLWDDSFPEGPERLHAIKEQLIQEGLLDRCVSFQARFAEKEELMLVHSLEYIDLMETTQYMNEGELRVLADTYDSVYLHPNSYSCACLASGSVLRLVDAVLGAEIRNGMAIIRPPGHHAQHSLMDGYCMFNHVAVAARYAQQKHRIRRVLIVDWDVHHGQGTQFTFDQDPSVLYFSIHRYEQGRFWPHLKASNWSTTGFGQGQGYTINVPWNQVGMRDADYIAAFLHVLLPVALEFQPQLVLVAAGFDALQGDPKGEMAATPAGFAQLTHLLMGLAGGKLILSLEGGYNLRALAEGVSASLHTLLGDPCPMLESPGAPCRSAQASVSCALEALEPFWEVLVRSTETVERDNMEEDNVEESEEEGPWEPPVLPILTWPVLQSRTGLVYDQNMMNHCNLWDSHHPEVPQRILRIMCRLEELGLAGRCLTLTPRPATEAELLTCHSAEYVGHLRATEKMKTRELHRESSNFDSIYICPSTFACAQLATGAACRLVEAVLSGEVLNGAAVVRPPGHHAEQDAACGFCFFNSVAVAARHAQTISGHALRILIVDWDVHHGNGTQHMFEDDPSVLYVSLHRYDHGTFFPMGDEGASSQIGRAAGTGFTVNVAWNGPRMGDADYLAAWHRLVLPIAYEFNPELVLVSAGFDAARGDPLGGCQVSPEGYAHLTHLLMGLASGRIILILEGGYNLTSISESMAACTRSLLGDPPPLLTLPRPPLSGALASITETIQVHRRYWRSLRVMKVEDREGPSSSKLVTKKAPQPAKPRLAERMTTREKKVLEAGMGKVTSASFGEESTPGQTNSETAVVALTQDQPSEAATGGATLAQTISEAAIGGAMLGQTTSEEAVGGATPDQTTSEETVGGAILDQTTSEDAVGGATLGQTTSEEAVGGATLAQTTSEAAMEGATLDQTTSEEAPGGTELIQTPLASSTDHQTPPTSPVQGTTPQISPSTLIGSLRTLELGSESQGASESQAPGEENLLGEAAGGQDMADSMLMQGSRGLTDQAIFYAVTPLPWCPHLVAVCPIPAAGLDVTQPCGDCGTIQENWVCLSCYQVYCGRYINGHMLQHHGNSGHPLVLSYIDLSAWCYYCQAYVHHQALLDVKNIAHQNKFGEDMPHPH
On to `O=C(/C=C/c1ccc2c(c1)C(=O)N(Cc1ccccc1)C2=O)NO`, for which the IC50 was 709 nM.
